Source: the Kinase Knowledgebase extract (Sharma et al. 2016)
pIC50: −log10 of the molar value.

Biological target: MAPK14 (human) (UniProt Q16539)
Assay: Inhibition of MAPK14 Kinase Activity
Conditions: THP.1 monocytic

MAPK14 (human), sequence (Q16539 whole entry, looked up): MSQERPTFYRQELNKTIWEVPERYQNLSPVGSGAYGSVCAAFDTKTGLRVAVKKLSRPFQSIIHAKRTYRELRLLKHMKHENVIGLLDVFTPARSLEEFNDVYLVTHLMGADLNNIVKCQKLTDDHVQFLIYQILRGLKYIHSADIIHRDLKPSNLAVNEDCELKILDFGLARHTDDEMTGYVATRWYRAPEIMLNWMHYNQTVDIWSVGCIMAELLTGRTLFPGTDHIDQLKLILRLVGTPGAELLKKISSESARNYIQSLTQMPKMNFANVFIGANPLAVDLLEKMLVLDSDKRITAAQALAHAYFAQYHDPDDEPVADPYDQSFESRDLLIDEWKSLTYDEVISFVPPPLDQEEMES

pIC50	Compound
4.00 to 4.60	C=Cc1c(OCc2ccccc2)ccn(Cc2ccccc2)c1=O
> 6.00	Cc1ccc(C(=O)NCCO)cc1-n1c(C)cc(OCc2ccc(F)cc2F)c(Br)c1=O
4.60 to 6.00	CC(=O)NCc1cccc(-n2c(C)cc(OCc3ccc(F)cc3F)c(Br)c2=O)c1
4.60 to 6.00	Cn1ccc(OCc2ccccc2)c(Br)c1=O
4.60 to 6.00	Cc1cc(OCc2ccc(F)cc2F)c(Br)c(=O)n1Cc1cccc(CNC(N)=O)c1
> 6.00	CC(=O)Nc1ccc(Cn2c(C)cc(OCc3ccc(F)cc3F)c(Br)c2=O)cc1
4.60 to 6.00	COCC(=O)NCc1cccc(-n2c(C)cc(OCc3ccc(F)cc3F)c(Br)c2=O)c1
4.60 to 6.00	Cc1cc(OCc2ccc(F)cc2F)c(Br)c(=O)n1Cc1ccccc1C(N)=O
4.60 to 6.00	CCn1ccc(OCc2ccccc2)c(Br)c1=O
4.00 to 4.60	O=c1cc(OCc2ccccc2)ccn1Cc1ccc(OC(F)(F)F)cc1
4.60 to 6.00	Cc1cc(OCc2ccc(F)cc2F)c(Br)c(=O)n1-c1cccc(C(=O)N(C)CCO)c1
> 6.00	Cc1cc(OCc2ccc(F)cc2F)c(Br)c(=O)n1Cc1cccc(CN2CCCCC2)c1
> 6.00	Cc1cc(OCc2ccc(F)cc2F)c(Br)c(=O)n1Cc1cccc(CN)c1
4.60 to 6.00	Cc1c(OCc2ccc(F)cc2)ccn(Cc2cccc(F)c2)c1=O
4.60 to 6.00	CNC(=O)NCc1cccc(-n2c(C)cc(OCc3ccc(F)cc3F)c(Br)c2=O)c1
> 6.00	Cc1cnc(Cn2c(C)cc(OCc3ccc(F)cc3F)c(Cl)c2=O)cn1
4.00 to 4.60	O=c1c(C(F)(F)F)c(OCc2ccccc2)ccn1Cc1cccc(F)c1
4.60 to 6.00	O=c1c(Br)c(CCc2ccccc2)ccn1Cc1ccccc1
> 6.00	CC(=O)NCc1cccc(Cn2c(C)cc(OCc3ccc(F)cc3F)c(Br)c2=O)c1
> 6.00	Cc1cc(OCc2ccc(F)cc2F)c(Br)c(=O)n1-c1ccccc1C(F)(F)F
4.60 to 6.00	Cc1cc(OCc2ccc(F)cc2F)c(Br)c(=O)n1Cc1cnc(C(C)(C)O)cn1
4.00 to 4.60	O=c1c(Br)c(OCc2ccccc2C(F)(F)F)ccn1Cc1ccccc1
> 6.00	Cc1cc(OCc2ccc(F)cc2F)c(Br)c(=O)n1-c1cccc(C(N)=O)c1
4.60 to 6.00	NC(=O)c1cccc(Cn2ccc(OCc3ccccc3)c(Br)c2=O)c1
4.00 to 4.60	N#Cc1ccc(COc2ccn(Cc3cccc(F)c3)c(=O)c2Br)cc1
4.60 to 6.00	Cc1cc(OCc2ccc(F)cc2F)c(Br)c(=O)n1-c1cccc(CNC(N)=O)c1
> 6.00	Cc1cc(OCc2ccc(F)cc2F)c(Br)c(=O)n1-c1cccc(C(=O)N(C)C)c1

pIC50	Compound
4.60 to 6.00	O=c1c(Br)c(OCc2ccccc2Cl)ccn1Cc1ccccc1
4.60 to 6.00	Cc1cc(OCc2ccc(F)cc2F)c(Br)c(=O)n1-c1cccc(CN)c1
4.60 to 6.00	Cc1ncc(Cn2c(C)cc(OCc3ccc(F)cc3F)c(Cl)c2=O)c(N)n1
> 6.00	Cc1cc(OCc2ccc(F)cc2F)c(Br)c(=O)n1-c1ccc(C(N)=O)cc1Cl
4.60 to 6.00	COC(=O)CCn1ccc(OCc2ccccc2)c(Br)c1=O
4.60 to 6.00	CC(C)(C)c1ccc(Cn2ccc(OCc3ccc(F)cc3F)c(Br)c2=O)cc1
4.60 to 6.00	Cc1cc(OCc2ccc(F)cc2F)c(Br)c(=O)n1-c1cc(CO)ccc1F
> 6.00	Cc1cc(OCc2ccc(F)cc2F)c(Br)c(=O)n1Cc1ccc(CN2CCOCC2)cc1
> 6.00	Cc1cc(OCc2ccc(F)cc2F)c(Br)c(=O)n1Cc1cnc(C(=O)N(C)C)cn1
> 6.00	COCCN(C)C(=O)c1ccc(Cn2c(C)cc(OCc3ccc(F)cc3F)c(Br)c2=O)cc1
> 6.00	Cc1cc(OCc2ccc(F)cc2F)c(Br)c(=O)n1Cc1cccc(CNS(C)(=O)=O)c1
4.60 to 6.00	CCOC(=O)CNc1nc(C)ncc1Cn1c(C)cc(OCc2ccc(F)cc2F)c(Br)c1=O
< 4.00	O=c1[nH]ccc(OCc2ccccc2)c1Br
> 6.00	Cc1cc(NCc2ccc(F)cc2)c(Br)c(=O)n1Cc1ccc(F)cc1
< 4.00	CNC(=O)c1ccc(-n2c(C)cc(OCc3ccc(F)cc3F)c(Br)c2=O)cc1
4.60 to 6.00	O=c1c(Br)c(CCc2ccccc2)ccn1Cc1cccc(F)c1
> 6.00	Cc1cc(OCc2ccc(F)cc2F)c(Br)c(=O)n1-c1c(F)cc(N(C)C)cc1F
> 6.00	Cc1cccc(COc2ccn(Cc3cccc(F)c3)c(=O)c2Br)c1
> 6.00	Cc1cc(OCc2ccc(F)cc2F)c(Br)c(=O)n1-c1c(F)cc(F)cc1F
4.60 to 6.00	Cc1cc(CCc2ccccc2)c(Br)c(=O)n1Cc1cccc(F)c1
4.60 to 6.00	C=CCNc1cc(=O)n(-c2c(F)cccc2F)c(C)c1I
> 6.00	Cc1cc(OCc2ccc(F)cc2F)c(Br)c(=O)n1-c1cc(CO)ccc1Cl
4.60 to 6.00	Cc1cc(OCc2cccc(Cl)c2)c(Br)c(=O)n1Cc1ccccc1
> 6.00	CCOC(=O)c1cnc(Cn2c(C)cc(OCc3ccc(F)cc3F)c(Cl)c2=O)cn1
< 4.00	CC(C)(C)c1ccc(COc2ccn(Cc3cccc(F)c3)c(=O)c2Br)cc1
4.60 to 6.00	O=C(Nc1ccn(Cc2cccc(F)c2)c(=O)c1Br)c1ccc(F)cc1
> 6.00	Cc1cc(OCc2ccc(F)cc2F)c(Br)c(=O)n1-c1cccc(C(=O)NCCN)c1

pIC50	Compound
> 6.00	Cc1cc(OCc2ccc(F)cc2F)c(Br)c(=O)n1-c1c(F)cc(Br)cc1F
4.00 to 4.60	Cc1cc(OCc2ccccc2)cc(=O)n1Cc1ccccc1
4.00 to 4.60	Cc1c(C=O)c(OCc2ccc(F)cc2F)c(Br)c(=O)n1-c1c(F)cccc1F
4.60 to 6.00	O=c1c(Br)c(NCc2cccc(C(F)(F)F)c2)ccn1Cc1cccc(F)c1
> 6.00	Cc1cccc(C)c1-n1c(C)cc(OCc2ccc(F)cc2F)c(Br)c1=O
4.60 to 6.00	O=c1c(I)c(OCc2ccccc2)ccn1Cc1ccccc1
4.00 to 4.60	Cc1c(C2CO2)c(OCc2ccc(F)cc2F)c(Br)c(=O)n1-c1c(F)cccc1F (configuration not stated)
> 6.00	O=c1c(Br)c(OCc2ccc(F)cc2F)cc(CN2CCOCC2)n1-c1c(F)cccc1F
4.60 to 6.00	NCc1ccccc1Cn1ccc(OCc2ccccc2)c(Br)c1=O
> 6.00	C=CCn1c(C)cc(OCc2ccc(F)cc2F)c(Br)c1=O
4.60 to 6.00	CNC(=O)c1cnc(Cn2c(C)cc(OCc3ccc(F)cc3F)c(Br)c2=O)cn1
> 6.00	Cc1cc(OCc2ccc(F)cc2F)c(Br)c(=O)n1Cc1ccc(C(=O)N(CCO)CCO)cc1
4.60 to 6.00	O=C(c1ccc(-n2ccc(OCc3ccccc3)c(Br)c2=O)cc1)N1CCOCC1
4.60 to 6.00	Cc1c(I)c(NCc2ccccc2)c(Br)c(=O)n1-c1c(F)cccc1F
4.60 to 6.00	Cc1cc(OCc2ccc(F)cc2F)c(Cl)c(=O)n1Cc1cnc(CO)cn1
4.00 to 4.60	C=Cc1c(OCc2ccc(F)cc2F)c(Br)c(=O)n(-c2c(F)cccc2F)c1C
> 6.00	Cc1cc(OCc2ccc(F)cc2F)c(Br)c(=O)n1-c1ccc(C(=O)NCCCN)cc1
> 6.00	Cc1cc(OCc2ccc(F)cc2F)c(Br)c(=O)n1-c1cccc(C(=O)NC(C)C)c1
> 6.00	COC(=O)c1ccc(-n2c(C)cc(OCc3ccc(F)cc3F)c(Br)c2=O)c(Cl)c1
4.60 to 6.00	Cc1cc(OCc2ccc(F)cc2F)c(Cl)c(=O)n1-c1cccc(C(=O)O)c1
> 6.00	Cc1cc(OCc2ccc(F)cc2F)c(Br)c(=O)n1-c1ccc2cn[nH]c2c1
4.60 to 6.00	Cc1cc(OCc2ccc(F)cc2F)c(Br)c(=O)n1Cc1ccccc1CN
< 4.00	O=c1c(Br)c(NCc2ccc(F)cc2C(F)(F)F)ccn1Cc1cccc(F)c1
> 6.00	Cc1cc(OCc2ccc(F)cc2F)c(Br)c(=O)n1-c1cc(C(N)=O)ccc1F
> 6.00	Cc1ccc(CO)cc1-n1c(C)cc(OCc2ccc(F)cc2F)c(Cl)c1=O
4.60 to 6.00	Cc1cc(OCc2ccc(F)cc2F)c(Br)c(=O)n1-c1cccc(CNC(=O)N(C)C)c1
4.60 to 6.00	Cc1ccc(CN(C)C)cc1-n1c(C)cc(OCc2ccc(F)cc2F)c(Br)c1=O

pIC50	Compound
> 6.00	Cc1cc(OCc2ccc(F)cc2F)c(Cl)c(=O)n1-c1cc(CN)ccc1F
> 6.00	Cc1cc(OCc2ccc(F)cc2F)c(Br)c(=O)n1Cc1cnc(C(=O)N2CCN(C)CC2)cn1
4.00 to 4.60	CCOC(=O)c1ccc(-n2c(C)cc(OCc3ccc(F)cc3F)c(Br)c2=O)nc1
> 6.00	Cc1cc(OCc2ccc(F)cc2F)c(Br)c(=O)n1Cc1ccc(CN(CCO)CCO)cc1
> 6.00	O=c1c(Br)c(OCc2ccc(F)cc2F)cc(CO)n1-c1c(F)cc(F)cc1F
4.60 to 6.00	NC(=O)c1ccccc1Cn1ccc(OCc2ccccc2)c(Br)c1=O
< 4.00	Cc1cc(OCc2ccc(F)cc2F)c(Br)c(=O)n1-c1ccc(C(C)(C)O)cn1
> 6.00	COC(=O)c1ccc(C)c(-n2c(C)cc(OCc3ccc(F)cc3F)c(Cl)c2=O)c1
4.00 to 4.60	O=c1cc(OCc2cccc(Cl)c2)ccn1Cc1ccccc1
4.60 to 6.00	C=CCNc1cc(C)n(-c2c(F)cccc2F)c(=O)c1Br
> 6.00	O=C(O)c1ccc(Cn2ccc(OCc3ccccc3)c(Br)c2=O)cc1
> 6.00	Cc1cc(OCc2ccc(F)cc2F)c(Br)c(=O)n1Cc1ccc(C(=O)NCCCN)cc1
> 6.00	Cc1cc(OCc2ccc(F)cc2F)c(Cl)c(=O)n1-c1c(F)cccc1F
4.60 to 6.00	Cc1cc(OCc2ccc(F)cc2F)c(Br)c(=O)n1Cc1ccnc(CN)n1
4.60 to 6.00	O=c1c(Br)c(NCc2ccc(Cl)cc2F)ccn1Cc1cccc(F)c1
4.60 to 6.00	Cc1cc(OCc2ccc(F)cc2F)c(Br)c(=O)n1Cc1cnc(CN(C)C)cn1
4.60 to 6.00	O=C(O)c1cc(OCc2ccc(F)cc2F)c(Br)c(=O)n1-c1c(F)cccc1F
> 6.00	Cc1cc(OCc2ccc(F)cc2F)c(Cl)c(=O)n1-c1c(F)cc(F)cc1F
> 6.00	CNC(=O)c1ccc(OC)c(-n2c(C)cc(OCc3ccc(F)cc3F)c(Br)c2=O)c1
4.60 to 6.00	COC(=O)NCc1cccc(-n2c(C)cc(OCc3ccc(F)cc3F)c(Br)c2=O)c1
4.60 to 6.00	Cc1cc(OCc2ccc(F)cc2F)c(Br)c(=O)n1-c1cccc(CNC(=O)CO)c1
> 6.00	Cc1cc(OCc2ccc(F)cc2F)c(Br)c(=O)n1Cc1ccc(C(=O)NCCN)cc1
4.60 to 6.00	Cc1ccc(CNC(C)C)cc1-n1c(C)cc(OCc2ccc(F)cc2F)c(Br)c1=O
4.60 to 6.00	CCc1c(OCc2ccccc2)ccn(Cc2ccccc2)c1=O

Compound	pIC50
CN(C(=O)Oc1ccn(Cc2ccccc2)c(=O)c1Br)c1ccccc1	< 4.00
CNCc1cnc(Cn2c(C)cc(OCc3ccc(F)cc3F)c(Br)c2=O)cn1	4.60 to 6.00
